Assay results taken from publication PMC2928817 (PLoS Pathogens, 2010).

Tests used:
[1] = molecular target: NA of A/Osaka/180/2009 (O180r; NA H274Y) (Influenza A virus, UniProt C3W5S3, H275Y); assay type: biochemical, 2009 pandemic influenza A (H1N1) virus
[2] = molecular target: NA of A/Vietnam/HN32060/2009 (VN32060r; NA H274Y) (Influenza A virus, UniProt C3W5S3, H275Y); assay type: biochemical, 2009 pandemic influenza A (H1N1) virus

Which results are given for `CC(=O)N[C@H]1[C@H]([C@H](O)[C@H](O)CO)OC(C(=O)O)=C[C@@H]1N=C(N)N` [Zanamivir]?
IC50 value of O180r compared with O164s [1]: comparable; IC50 value of VN32060r compared with VN9727s [2]: comparable
